Key:
[1] = Monkey oral pharmacokinetic (PK) study, non-naïve Cynomolgus male monkeys; type: in vivo; settings: for plasma concentration-time profile: PO, over about 24 hours after oral dosing; for Tmax / bioavailability: male, cynomolgus monkey, plasma; for Tmax / bioavailability / AUC0-24 h / Cmax: oral
Description: (§1) Appropriate volumes of vehicles (e.g., 2% Tween 80 (v:v) and 0.5% MC (w:v) in saline or 0.5% MC (w:v) in water were then added into the mortar containing the ground compounds, and the mixture was then grinded with a pestle until a homogeneous paste was formed. Additional appropriate volumes of vehicles were added into the mortar containing each compound, and the mixture was grinded further with the pestle until a homogeneous suspension was obtained.
(§2) The rest of the vehicle was added to make up the final dosing volume of about 1 mg/mL or 2 mg/mL (i.e., final dosing volume of about 5 mL/kg), and the homogenous suspension was continuously stirred prior to and during the dosing.
(§3) Non-naïve Cynomolgus male monkeys (n=3/test article; sourced from Hainan Jingang Biotech Co., Ltd., Nayang Xmtan, Fucheng Town, Qiongshan District, Haikou City, Hainan Province, China); or non-naïve aged, obese, and diabetic male Macaca fascicularis monkeys (n=3/test article, Source: Kunming Biomed International Colony) were used in pre-clinical in vivo studies. All non-naïve Cynomolgus male monkeys were approximately 3 to 5 years old, weighed about 2.5-5 kg, and were within ±20% of the average body weight. All non-naïve aged, obese, and diabetic male Macaca fascicularis monkeys were approximately 12 to 20 years old, weighed about >8-12 kg.
(§4) All animals were fasted overnight before dosing, and the food were supplied approximately 4 hours post dose (with free access to water all the time).
(§5) Animals were restrained at designated time points for blood sampling. Approximately 500 μL of blood samples was taken via cephalic or saphenous vein into EDTA-K2 tubes. Blood samples were put on wet ice before centrifugation.
(§6) For oral administration (PO) of either Dose 1 or Dose 2: blood samples were collected at pre-dose, and at 15 min, 30 min, 1 hr, 2 hr, 4 hr, (6 hr for compounds 19 and 28 with cynomolgus monkeys only), 8 hr, 12 hr, and 24 hr post dose (i.e., 9 or 10 total time points for each compound at each dose).
(§7) The blood samples were centrifuged at approximately 2,000-4,000 rpm for about 10-15 minutes at 2-8′C, and each resulting plasma portion was then transferred into an individual tube.
(§8) LC-MS/MS methods were developed, and bioanalysis for the test articles in monkey plasma was performed according to the developed LC-MS/MS methods.
Undiluted plasma samples: An aliquot of 20-50 μL plasma sample was mixed with 200 μL of ACN or MeOH containing one of the internal standards (IS, e.g., Diclofenac or Terfenadine). The mixture was then vortexed for about 1-5 min, and centrifuged at about 4,000-5,800 rpm for about 10-15 min. An aliquot of 1 μL supernatant was used for LC-MS/MS analysis.
(§9) Pharmacokinetics parameters, including area under the curve (AUC0-t), maximum plasma concentration (Cmax), time to reach maximum plasma concentration (Tmax), oral bioavailability (F %), etc., were calculated using Phoenix software (Version 6.4) and non-compartment model.

[2] = Monkey oral pharmacokinetic (PK) study, aged, obese, and diabetic male monkeys; type: in vivo; settings: Dose 2, non-naïve aged, obese, and diabetic male Macaca fascicularis monkeys
Description: as §1, §2, §3, §4, §5, §6, §7, §8
Undiluted plasma samples: An aliquot of 20-50 μL plasma sample was mixed with 200 μL of ACN or MeOH containing one of the internal standards (IS, e.g., Diclofenac or Terfenadine). […]
as §9

| SMILES | plasma concentration-time profile [1] | Tmax ([1]; Dose 2) | bioavailability ([1]; Dose 2) | AUC0-24 h ([1]; Dose 2) | Cmax ([1]; Dose 2) | AUC0-24 h [2] | Cmax [2] | Tmax ([2]; cynomolgus monkey, plasma) | bioavailability ([2]; cynomolgus monkey, plasma) | Tmax ([1]; Dose 1) | bioavailability ([1]; Dose 1) | AUC0-24 h ([1]; Dose 1) | Cmax ([1]; Dose 1) |
| --- | --- | --- | --- | --- | --- | --- | --- | --- | --- | --- | --- | --- | --- |
| N#Cc1ccc(COc2cccc(C3=CCN(Cc4nc5ccc(C(=O)O)nc5n4C[C@@H]4CCO4)CC3)n2)c(F)c1 [Compound 225, (S)-2-((6-((4-cyano-2-fluorobenzyl)oxy)-3′,6′-dihydro-[2,4′-bipyridin]-1′(2′H)-yl)methyl)-3-(oxetan-2-ylmethyl)-3H-imidazo[4,5-b]pyridine-5-carboxylic add] | sustained at a more constant level | 4 h | 9.93% | 1500 Arbitrary units | 184 Arbitrary unit |  |  |  |  |  |  |  |  |
| O=C(O)c1ccc2nc(CN3CC=C(c4ccc(F)c(OCc5ccc(Cl)cc5F)c4)CC3)n(C[C@@H]3CCO3)c2c1 [Compound 29, (S)-2-((4-(3-((4-chloro-2-fluorobenzyl)oxy)-4-fluorophenyl)-3,6-dihydropyridin-1(2H)-yl)methyl)-1-(oxetan-2-ylmethyl)-1 h-benzo[d]imidazole-6-carboxylic acid] | sustained at a more constant level | 1.2 h | 41% | 21800 Arbitrary units | 3380 Arbitrary unit |  |  |  |  |  |  |  |  |
| N#Cc1ccc(COc2cccc(C3=CCN(Cc4nc5ccc(C(=O)O)cc5n4C[C@@H]4CCO4)CC3)n2)c(F)c1 [Compound 19, (S)-2-((4-(6-(4-cyano-2-fluorobenzyloxy)pyridin-2-yl)-5,6-dihydropyridin-1(2H)-yl)methyl)-1-(oxetan-2-ylmethyl)-1 h-benzo[d]imidazole-6-carboxylic add] | sustained at a more constant level |  |  |  |  | 2470 Arbitrary units | 413 Arbitrary unit | 8.8 h | 15.5% | 2.7 h | 10.8% | 1130 Arbitrary units | 125 Arbitrary unit |
| O=C(O)c1ccc2nc(CN3CC=C(c4cccc(OCc5ccc(Cl)cc5F)c4)CC3)n(C[C@@H]3CCO3)c2c1 [Compound 28, (S)-2-((4-(3-((4-chloro-2-fluorobenzyl)oxy)phenyl)-3,6-dihydropyridin-1(2H)-yl)methyl)-1-(oxetan-2-ylmethyl)-1 h-benzo[d]imidazole-6-carboxylic add] | sustained at a more constant level |  |  |  |  |  |  |  |  | 3.3 h | 56.1% | 24900 Arbitrary units | 3910 Arbitrary unit |
